# Assay results published in US20100190794A1, “Herbicidally Active Composition” (BASF SE, priority 2007, published 2010).
# What was measured:
# Test in all cases: greenhouse test, pre-emergence treatment
# [1] = test system: ALOMY; type: in vivo, Alopecurus myosuroides
# Text: (§1) The culture containers used were plastic pots containing loamy sand with approximately 3.0% of humus as substrate. The seeds of the test plants were sown separately for each species.
# (§2) For the pre-emergence treatment, the active compounds, suspended or emulsified in water, were applied directly after sowing by means of finely distributing nozzles. The containers were irrigated gently to promote germination and growth and subsequently covered with transparent plastic hoods until the plants had rooted. This cover caused uniform germination of the test plants unless this was adversely affected by the active compounds.
# (§3) Depending on the species, the plants were kept at 10-25° C. and 20-35° C., respectively. The test period extended over 2 to 4 weeks. During this time, the plants were tended and their response to the individual treatments was evaluated.
# (§4) Evaluation was carried out using a scale from 0 to 100. 100 means no emergence of the plants, or complete destruction of at least the above-ground parts, and 0 means no damage or normal course of growth. Good herbicidal activity is given at values of at least 70, and very good herbicidal activity is given at values of at least 85.
# (§5) The respective stated components A and B, and if appropriate, C were formulated as a 5% by weight or 10% by weight strength emulsion concentrate or a commercially available formulation of component B was used and, with addition of the amount of solvent system, introduced into the spray liquor used for applying the active compound. In the examples, the solvent used was water.
# (§6) The test period extended over 20 or 21 days. During this time, the plants were tended, and their reactions to the treatment with active compound was monitored.
# (§7) What was evaluated was the damage by the chemical compositions using a scale of from 0 to 100%, in comparison to the untreated control plants. 0 means no damage, and 100 means complete destruction of the plants.
# (§8) In the examples below, using the method of S. R. Colby (1967) “Calculating synergistic and antagonistic responses of herbicide combinations”, Weeds 15, p. 22 ff., the value E, which is expected if the activity of the individual active compounds is only additive, was calculated.
# (§9) where X=percent activity using active compound A at an application rate a; Y=percent activity using active compound B at an application rate b; E=expected activity (in %) by A+B at application rates a+b.
# (§10) If the value found in experiments is higher than the value E calculated according to Colby, a synergistic effect is present.
# [2] = test system: LOLMU; type: in vivo, Lolium multiflorum; settings: Use Example 21
# Text: as §1, §2, §3, §4, §5, §6, §7, §8, §9, §10
# [3] = test system: BRAPL; type: in vivo, Brachiaria plantaginea; settings: for Herbicidal action in % after 21 days against BRAPL: Use Example 8
# Text: as §1, §2, §3, §4, §5, §6, §7, §8, §9, §10
# [4] = test system: ECHCG; type: in vivo, Echinochloa crus-galli
# Text: as §1, §2, §3, §4, §5, §6, §7, §8, §9, §10
# [5] = test system: LAMPU; type: in vivo, Lamium purpureum
# Text: as §1, §2, §3, §4, §5, §6, §7, §8, §9, §10
# [6] = test system: PHACA; type: in vivo, Phalaris canariensis
# Text: as §1, §2, §3, §4, §5, §6, §7, §8, §9, §10
# [7] = test system: SETFA; type: in vivo, Setaria faberi
# Text: as §1, §2, §3, §4, §5, §6, §7, §8, §9, §10
# [8] = test system: SOLNI; type: in vivo, Solanum nigrum L.
# Text: as §1, §2, §3, §4, §5, §6, §7, §8, §9, §10
# [9] = test system: DIGSA; type: in vivo, Digitaria sanguinalis
# Text: as §1, §2, §3, §4, §5, §6, §7, §8, §9, §10
# [10] = test system: APESV; type: in vivo, Apera spica-venti
# Text: as §1, §2, §3, §4, §5, §6, §7, §8, §9, §10
# [11] = test system: SETLU; type: in vivo, Setaria glauca; settings: 31.25 g/ha a.s., Use Example 14
# Text: as §1, §2, §3, §4, §5, §6, §7, §8, §9, §10
# [12] = test system: POAAN; type: in vivo, Poa annua; settings: Use Example 15
# Text: as §1, §2, §3, §4, §5, §6, §7, §8, §9, §10
# [13] = 31.25 g/ha a.s., Use Example 23
# [14] = 31.25 g/ha a.s., Use Example 14
smiles,measurement,setting,value
"CN1C(=O)C(Cc2ccccc2)N(C)C(=O)C1=Cc1ccccc1C#N (racemic) [Compound I-1 (Z) (Racemate), 2-[5-benzyl-1,4-dimethyl-3,6-dioxopiperazin-2-ylidenemethyl]benzonitrile]",Herbicidal action in % after 20 days against ALOMY,"[1]; 63 g/ha a.s., Use Example 21",30%
same,Herbicidal action in % after 20 days against ALOMY,"[1]; 125 g/ha a.s., Use Example 21",75%
same,Herbicidal action in % after 20 days against LOLMU,[2]; 63 g/ha a.s.,30%
same,Herbicidal action in % after 20 days against LOLMU,[2]; 125 g/ha a.s.,50%
same,Herbicidal action in % after 20 days against BRAPL,"[3]; 125 g/ha a.s., Use Example 23",40%
same,Herbicidal action in % after 20 days against BRAPL,"[3]; 250 g/ha a.s., Use Example 19",75%
same,Herbicidal action in % after 20 days against BRAPL,"[3]; 250 g/ha a.s., Use Example 23",75%
same,Herbicidal action in % after 20 days against ECHCG,"[4]; 125 g/ha a.s., Use Example 22",20%
same,Herbicidal action in % after 20 days against ECHCG,"[4]; 125 g/ha a.s., Use Example 23",20%
same,Herbicidal action in % after 20 days against ECHCG,"[4]; 250 g/ha a.s., Use Example 22",70%
same,Herbicidal action in % after 20 days against ECHCG,"[4]; 250 g/ha a.s., Use Example 23",70%
same,Herbicidal action in % after 20 days against LAMPU,"[5]; 63 g/ha a.s., Use Example 21",0%
same,Herbicidal action in % after 20 days against LAMPU,"[5]; 125 g/ha a.s., Use Example 20",30%
same,Herbicidal action in % after 20 days against LAMPU,"[5]; 125 g/ha a.s., Use Example 21",30%
same,Herbicidal action in % after 20 days against LAMPU,"[5]; 250 g/ha a.s., Use Example 20",80%
same,Herbicidal action in % after 20 days against PHACA,"[6]; 125 g/ha a.s., Use Example 20",65%
same,Herbicidal action in % after 20 days against PHACA,"[6]; 250 g/ha a.s., Use Example 20",90%
same,Herbicidal action in % after 20 days against SETFA,"[7]; 125 g/ha a.s., Use Example 22",75%
same,Herbicidal action in % after 20 days against SETFA,"[7]; 250 g/ha a.s., Use Example 19",85%
same,Herbicidal action in % after 20 days against SETFA,"[7]; 250 g/ha a.s., Use Example 22",85%
same,Herbicidal action in % after 20 days against SOLNI,"[8]; 125 g/ha a.s., Use Example 22",40%
same,Herbicidal action in % after 20 days against SOLNI,"[8]; 125 g/ha a.s., Use Example 23",40%
same,Herbicidal action in % after 20 days against SOLNI,"[8]; 250 g/ha a.s., Use Example 19",65%
same,Herbicidal action in % after 20 days against SOLNI,"[8]; 250 g/ha a.s., Use Example 22",65%
same,Herbicidal action in % after 20 days against SOLNI,"[8]; 250 g/ha a.s., Use Example 23",65%
same,Herbicidal action in % after 20 days against DIGSA,"[9]; 125 g/ha a.s., Use Example 22",40%
same,Herbicidal action in % after 20 days against DIGSA,"[9]; 125 g/ha a.s., Use Example 23",40%
same,Herbicidal action in % after 20 days against DIGSA,"[9]; 250 g/ha a.s., Use Example 19",65%
same,Herbicidal action in % after 20 days against DIGSA,"[9]; 250 g/ha a.s., Use Example 22",65%
same,Herbicidal action in % after 20 days against DIGSA,"[9]; 250 g/ha a.s., Use Example 23",65%
same,Herbicidal action in % after 20 days against APESV,"[10]; 63 g/ha a.s., Use Example 21",80%
same,Herbicidal action in % after 20 days against APESV,"[10]; 125 g/ha a.s., Use Example 20",90%
same,Herbicidal action in % after 20 days against APESV,"[10]; 125 g/ha a.s., Use Example 21",90%
same,Herbicidal action in % after 20 days against APESV,"[10]; 250 g/ha a.s., Use Example 20",95%
"CC1(C)CON(Cc2ccccc2Cl)C1=O [Clomazon, Clomazone]",Herbicidal action in % after 21 days against BRAPL,[3]; 50 g/ha a.s.,65%
same,Herbicidal action in % after 21 days against BRAPL,[3]; 100 g/ha a.s.,85%
"COC[C@H](C)N(C(=O)CCl)c1c(C)csc1C [Dimethenamide-P, reference compound]",Herbicidal action in % after 20 days against SETLU,[11],65%
same,Herbicidal action in % after 20 days against BRAPL,"[3]; 16 g/ha a.s., Use Example 23",40%
same,Herbicidal action in % after 20 days against BRAPL,[3]; [13],50%
same,Herbicidal action in % after 20 days against ECHCG,"[4]; 16 g/ha a.s., Use Example 23",50%
same,Herbicidal action in % after 20 days against ECHCG,[4]; [13],85%
same,Herbicidal action in % after 20 days against SETFA,[7]; [14],95%
same,Herbicidal action in % after 20 days against SOLNI,"[8]; 16 g/ha a.s., Use Example 23",60%
same,Herbicidal action in % after 20 days against SOLNI,[8]; [13],80%
same,Herbicidal action in % after 20 days against DIGSA,"[9]; 16 g/ha a.s., Use Example 23",70%
same,Herbicidal action in % after 20 days against DIGSA,[9]; [14],90%
same,Herbicidal action in % after 20 days against DIGSA,[9]; [13],85%
"CC(C)c1ccc(NC(=O)N(C)C)cc1 [Isoproturon, reference compound]",Herbicidal action in % after 20 days against ALOMY,"[1]; 375 g/ha a.s., Use Example 4",90%
same,Herbicidal action in % after 20 days against ALOMY,"[1]; 750 g/ha a.s., Use Example 4",98%
same,Herbicidal action in % after 20 days against PHACA,"[6]; 375 g/ha a.s., Use Example 4",55%
same,Herbicidal action in % after 20 days against PHACA,"[6]; 750 g/ha a.s., Use Example 4",75%
"CCC(C)(CC)c1cc(NC(=O)c2c(OC)cccc2OC)on1 [Isoxaben, reference compound]",Herbicidal action in % after 20 days against ALOMY,"[1]; 25 g/ha a.s., Use Example 15",0%
same,Herbicidal action in % after 20 days against ALOMY,"[1]; 50 g/ha a.s., Use Example 15",0%
same,Herbicidal action in % after 20 days against POAAN,[12]; 25 g/ha a.s.,0%
same,Herbicidal action in % after 20 days against POAAN,[12]; 50 g/ha a.s.,0%
